Measured values published in patent US7932270B2 (Cytokinetics, Inc., priority 2006, dated 2011).

Target: T1, chicken gizzard smooth muscle myosin subfragment-1 chemically crosslinked to cardiac or skeletal actin (Gallus gallus, UniProt P10587)
T1 construct: chicken gizzard smooth muscle myosin subfragment-1; from tissue; host or cells: chicken gizzard
Experiment: Smooth muscle myosin ATPase dose response assay (pyruvate kinase/horseradish peroxidase/pyruvate oxidase-coupled, amplex red fluorescence)
Format: biochemical
Details: read-out: IC50 Arithmetic Mean
In short: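 EDC/NHS-crosslinked S1–actin, amount set per prep by rate titration. Buffer: 12 mM K-PIPES pH 7.00 (22° C), 100 mM KCl, 2 mM MgCl2, 0.15 mM ATP, 0.1 mM PEP, 2 mM KPi, 0.1 mM amplex red. Read ex 480/em 615 nm; IC50 = midpoint, 4-param Hill fit.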

T1 sequence (P02607 2-151): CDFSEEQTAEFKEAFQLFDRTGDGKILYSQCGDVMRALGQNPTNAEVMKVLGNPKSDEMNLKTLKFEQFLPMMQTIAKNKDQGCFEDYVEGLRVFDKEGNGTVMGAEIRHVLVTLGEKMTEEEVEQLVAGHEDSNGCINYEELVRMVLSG
T1 sequence (P10587 84-789): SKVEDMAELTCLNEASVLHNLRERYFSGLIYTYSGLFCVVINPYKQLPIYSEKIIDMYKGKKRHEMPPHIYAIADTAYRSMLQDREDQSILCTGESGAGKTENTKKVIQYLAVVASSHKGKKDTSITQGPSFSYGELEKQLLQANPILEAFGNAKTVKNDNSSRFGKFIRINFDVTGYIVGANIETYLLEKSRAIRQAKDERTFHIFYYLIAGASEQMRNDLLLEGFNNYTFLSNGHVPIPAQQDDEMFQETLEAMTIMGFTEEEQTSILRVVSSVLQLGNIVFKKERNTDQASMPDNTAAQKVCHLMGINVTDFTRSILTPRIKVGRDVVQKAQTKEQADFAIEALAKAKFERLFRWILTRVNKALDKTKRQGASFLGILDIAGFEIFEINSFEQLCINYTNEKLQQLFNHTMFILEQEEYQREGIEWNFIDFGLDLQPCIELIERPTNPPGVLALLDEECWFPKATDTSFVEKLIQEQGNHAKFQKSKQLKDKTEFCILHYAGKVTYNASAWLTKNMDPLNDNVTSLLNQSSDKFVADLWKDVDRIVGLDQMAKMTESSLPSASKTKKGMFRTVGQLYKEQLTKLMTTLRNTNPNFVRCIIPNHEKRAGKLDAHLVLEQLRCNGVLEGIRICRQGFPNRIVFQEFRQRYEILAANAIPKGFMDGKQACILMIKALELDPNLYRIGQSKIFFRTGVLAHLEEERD

Row | Compound | IC50 [nM]
1 | O=C(NCc1cccnc1)c1ccc(-c2cccs2)nc1NCCc1cccc(F)c1 [(2-{[2-(3-fluorophenyl)ethyl]amino}-6-(2-thienyl)(3-pyridyl))-N-(3-pyridylmethyl)carboxamide] | 137
2 | CC(=O)N1CCCC(CNC(=O)c2ccc(-c3ccccc3)nc2NCCc2ccccn2)C1 (stereo not shown) [N-[(1-acetyl(3-piperidyl))methyl]{6-phenyl-2-[(2-(2-pyridyl)ethyl)amino](3-pyridyl)}carboxamide] | 48400
3 | N#Cc1ccccc1-c1ccc(C(=O)NCC2CCCCCN2C(=O)CCN)c(NCCc2cccc(F)c2)n1 (stereo not shown) [N-{[1-(3-aminopropanoyl)azaperhydroepin-2-yl]methyl}(6-(2-cyanophenyl)-2-{[2-(3-fluorophenyl)ethyl]amino}(3-pyridyl))carboxamide] | 256
4 | N#Cc1ccccc1-c1nc(NCCc2cccc(F)c2)c(C(=O)NCc2cccnc2)cc1C#N [(5-cyano-6-(2-cyanophenyl)-2-{[2-(3-fluorophenyl)ethyl]amino}(3-pyridyl))-N-(3-pyridylmethyl)carboxamide] | 318
5 | Cc1cc(C(=O)NC[C@H]2CCC(=O)N2CCCNC(=O)OC(C)(C)C)c(NCCc2cccc(F)c2)nc1-c1ccccc1C#N [N-[3-((5R)-5-{[(6-(2-cyanophenyl)-2-{[2-(3-fluorophenyl)ethyl]amino}-5-methyl(3-pyridyl))carbonylamino]methyl}-2-oxopyrrolidinyl)propyl](tert-butoxy)carboxamide] | 5370
6 | NCCCn1ccc(CNC(=O)c2ccc(-c3cc[nH]n3)nc2NCCc2cccc(F)c2)n1 [N-{[1-(3-aminopropyl)pyrazol-3-yl]methyl}(2-{[2-(3-fluorophenyl)ethyl]amino}-6-pyrazol-3-yl(3-pyridyl))carboxamide] | 3760
7 | O=C(NCc1cccnc1)c1ccc(-c2cc(CO)ccc2Cl)nc1NCCc1cccc(F)c1 [(6-[2-chloro-5-(hydroxymethyl)phenyl]-2-{[2-(3-fluorophenyl)ethyl]amino}(3-pyridyl))-N-(3-pyridylmethyl)carboxamide] | 1190
8 | CN(C)C(=O)[C@H](CN)NC(=O)c1ccc(-c2ccccc2C#N)nc1NCCc1cccc(F)c1 [(2S)-3-amino-2-[(6-(2-cyanophenyl)-2-{[2-(3-fluorophenyl)ethyl]amino}(3-pyridyl))carbonylamino]-N,N-dimethylpropanamide] | 23700
9 | Cn1cc(-c2ccc(C(=O)NCc3cc[nH]n3)c(NCCc3cccc(F)c3)n2)cn1 [(2-{[2-(3-fluorophenyl)ethyl]amino}-6-(1-methylpyrazol-4-yl)(3-pyridyl))-N-(pyrazol-3-ylmethyl)carboxamide] | 31
10 | C[C@H](N)C(=O)N1CCCC[C@@H]1CNC(=O)c1ccc(-c2ccccc2C#N)nc1NCCc1cccc(F)c1 [N-{[(2R)-1-((2S)-2-aminopropanoyl)(2-piperidyl)]methyl}(6-(2-cyanophenyl)-2-{[2-(3-fluorophenyl)ethyl]amino}(3-pyridyl))carboxamide] | 52
11 | N#Cc1ccccc1-c1ccc(C(=O)NCCO)c(NCCc2cccc(F)c2)n1 [(6-(2-cyanophenyl)-2-{[2-(3-fluorophenyl)ethyl]amino}(3-pyridyl))-N-(2-hydroxyethyl)carboxamide] | 1080
12 | NCc1ncccc1CNC(=O)c1ccc(-c2ccccc2)nc1NCCc1cccc(F)c1 [N-{[2-(aminomethyl)(3-pyridyl)]methyl}(2-{[2-(3-fluorophenyl)ethyl]amino}-6-phenyl(3-pyridyl))carboxamide] | 8
13 | N#Cc1ccccc1-c1ccc(C(=O)NC[C@H]2CCCCN2C(=O)CCCN)c(NCCc2cccc(F)c2)n1 [N-{[(2R)-1-(4-aminobutanoyl)(2-piperidyl)]methyl}(6-(2-cyanophenyl)-2-{[2-(3-fluorophenyl)ethyl]amino}(3-pyridyl))carboxamide] | 83
14 | O=C(NCc1cccnc1)c1ccc(-c2ccc(F)c(F)c2)nc1NCCc1ccccn1 [{6-(3,4-difluorophenyl)-2-[(2-(2-pyridyl)ethyl)amino](3-pyridyl)}-N-(3-pyridylmethyl)carboxamide] | 1210
15 | CC(C)(C)OC(=O)NCCN1CCC[C@H](NC(=O)c2ccc(-c3ccccc3C#N)nc2NCCc2cccc(F)c2)C1=O (stereo in doubt) [N-(1-{2-[(tert-butoxy)carbonylamino]ethyl}-2-oxo(3-piperidyl))(6-(2-cyanophenyl)-2-{[2-(3-fluorophenyl)ethyl]amino}(3-pyridyl))carboxamide] | 15300
16 | O=C(NCc1cccc(Br)n1)c1ccc(-c2cn[nH]c2)nc1NCCc1cccc(F)c1 [N-[(6-bromo(2-pyridyl))methyl](2-{[2-(3-fluorophenyl)ethyl]amino}-6-pyrazol-4-yl(3-pyridyl))carboxamide] | 117
17 | CNC(=O)/C=C/c1ccc(-c2ccccc2)nc1NCCc1cccc(F)c1 [(2E)-3-(2-{[2-(3-fluorophenyl)ethyl]amino}-6-phenyl(3-pyridyl))-N-methylprop-2-enamide] | 57400

Row | Compound | IC50 [nM]
18 | CC(=O)N1CC[C@@H](CNC(=O)c2ccc(-c3ccccc3)nc2NCCc2ccccn2)C1 [N-[((3S)-1-acetylpyrrolidin-3-yl)methyl]{6-phenyl-2-[(2-(2-pyridyl)ethyl)amino](3-pyridyl)}carboxamide] | 25200
19 | Cn1cc(-c2nc(NCCc3cccc(F)c3)c(C(=O)NC[C@H]3CCCN3C(=O)CNC(=O)OC(C)(C)C)cc2F)cn1 [N-[((2R)-1-{2-[(tert-butoxy)carbonylamino]acetyl}pyrrolidin-2-yl)methyl](5-fluoro-2-{[2-(3-fluorophenyl)ethyl]amino}-6-(1-methylpyrazol-4-yl)(3-pyridyl))carboxamide] | 625
20 | O=C(NCc1cccc(NCCO)n1)c1ccc(-c2cn[nH]c2)nc1NCCc1cccc(F)c1 [(2-{[2-(3-fluorophenyl)ethyl]amino}-6-pyrazol-4-yl(3-pyridyl))-N-({6-[(2-hydroxyethyl)amino](2-pyridyl)}methyl)carboxamide] | 39
21 | O=C(NCc1cccnc1)c1ccc(-c2ccc(F)cc2)nc1NCCc1cccc(F)c1 [(6-(4-fluorophenyl)-2-{[2-(3-fluorophenyl)ethyl]amino}(3-pyridyl))-N-(3-pyridylmethyl)carboxamide] | 198
22 | N#Cc1ccccc1-c1ccc(C(=O)NC[C@H]2CCCN2C(=O)OCCN)c(NCCc2cccc(F)c2)n1 [2-aminoethyl (2R)-2-{[(6-(2-cyanophenyl)-2-{[2-(3-fluorophenyl)ethyl]amino}(3-pyridyl))carbonylamino]methyl}pyrrolidinecarboxylate] | 27
23 | C[C@@H](CN=[N+]=[N-])CNC(=O)c1cc(F)c(-c2cnn(C)c2)nc1NCCc1cccc(F)c1 [N-((2R)-4-diazo-2-methyl-4-azabut-4-enyl)(5-fluoro-2-{[2-(3-fluorophenyl)ethyl]amino}-6-(1-methylpyrazol-4-yl)(3-pyridyl))carboxamide] | 118
24 | N#Cc1ccccc1-c1ccc(C(=O)NC[C@H]2CCCN2C(=O)CCCCN)c(NCCc2cccc(F)c2)n1 [N-{[(2R)-1-(5-aminopentanoyl)pyrrolidin-2-yl]methyl}(6-(2-cyanophenyl)-2-{[2-(3-fluorophenyl)ethyl]amino}(3-pyridyl))carboxamide] | 99
25 | O=C1CCCCC(CNC(=O)c2ccc(-c3cn[nH]c3)nc2NCCc2cccc(F)c2)N1 (stereo not shown) [(2-{[2-(3-fluorophenyl)ethyl]amino}-6-pyrazol-4-yl(3-pyridyl))-N-[(7-oxoazaperhydroepin-2-yl)methyl]carboxamide] | 687
26 | CC(C)(CNC(=O)c1ccc(-c2ccccc2C#N)nc1NCCc1cccc(F)c1)NC(=O)CN | 320
27 | Cc1cc(C(=O)NCc2cccnc2CNC(=O)OC(C)(C)C)c(NCCc2cccc(F)c2)nc1-c1ccccc1C#N [N-[(2-{[(tert-butoxy)carbonylamino]methyl}(3-pyridyl))methyl](6-(2-cyanophenyl)-2-{[2-(3-fluorophenyl)ethyl]amino}-5-methyl(3-pyridyl))carboxamide] | 4250
28 | NCCCn1nccc1CNC(=O)c1ccc(-c2cc[nH]n2)nc1NCCc1cccc(F)c1 [N-{[1-(3-aminopropyl)pyrazol-5-yl]methyl}(2-{[2-(3-fluorophenyl)ethyl]amino}-6-pyrazol-3-yl(3-pyridyl))carboxamide] | 462
29 | N#Cc1ccccc1-c1ccc(C(=O)NC[C@H]2CCC(=O)N2)c(NCCc2cccc(F)c2)n1 [N-[((2R)-5-oxopyrrolidin-2-yl)methyl](6-(2-cyanophenyl)-2-{[2-(3-fluorophenyl)ethyl]amino}(3-pyridyl))carboxamide] | 13
30 | N#Cc1ccccc1-c1ccc(C(=O)NCc2cccnc2Cl)c(NCCc2cccc(F)c2)n1 [N-[(2-chloro(3-pyridyl))methyl](6-(2-cyanophenyl)-2-{[2-(3-fluorophenyl)ethyl]amino}(3-pyridyl))carboxamide] | 72
31 | Cn1cc(-c2nc(NCCc3cccc(F)c3)c(C(=O)NCCCNC(=O)OC(C)(C)C)cc2F)cn1 [N-{3-[(tert-butoxy)carbonylamino]propyl}(5-fluoro-2-{[2-(3-fluorophenyl)ethyl]amino}-6-(1-methylpyrazol-4-yl)(3-pyridyl))carboxamide] | 4500
32 | COC(=O)N1CCC[C@H](CNC(=O)c2ccc(-c3ccccc3C#N)nc2NCCc2cccc(F)c2)C1 [methyl (3R)-3-{[(6-(2-cyanophenyl)-2-{[2-(3-fluorophenyl)ethyl]amino}(3-pyridyl))carbonylamino]methyl}piperidinecarboxylate] | 718
33 | Cn1cc(-c2nc(NCCc3cccc(F)c3)c(C(=O)NC[C@H]3CCN3C(=O)CN)cc2F)cn1 [N-{[(2R)-1-(2-aminoacetyl)azetidin-2-yl]methyl}(5-fluoro-2-{[2-(3-fluorophenyl)ethyl]amino}-6-(1-methylpyrazol-4-yl)(3-pyridyl))carboxamide] | 50
34 | N#Cc1ccccc1-c1ccc(C(=O)NC[C@@H]2CCC(=O)N2CCN)c(NCCc2cccc(F)c2)n1 [N-{[(2S)-1-(2-aminoethyl)-5-oxopyrrolidin-2-yl]methyl}(6-(2-cyanophenyl)-2-{[2-(3-fluorophenyl)ethyl]amino}(3-pyridyl))carboxamide] | 917
